Results reported in patent US7049071B2, “Detection of DNA damaging agents” (University of Manchester Institute of Science and Technology, priority 1997, dated 2006).
“And” between values parts separate entries of the source, which are not always exact repeats. Equal values may be shown once.

Assays:
Assay type in all cases: cell-based, Saccharomyces cerevisiae
RAD54 promoter [1] = experiment: Fluorescence assay of yeast transformed with pWDH443 or pWDH444 (RAD54 promoter linked to S65T GFP), whole cells or cell extracts
Description: Light emitted by GFP at 511 nm (after excitation at 488 nm) from yeast cells transformed with pWDH443 and pWDH444 and expressing GFP was measured in a fluorimeter in the absence (controls) or presence of compounds known to induce DNA damage such as Methyl Methane Sulphonate (MMS). Samples were assayed as whole cells or as cell extracts.
Yeast strains Y485 and Y486 in haploid form or Y485/486 in diploid form were in this Example (see above).
A stationary phase culture of cells grown in SD medium was used as the inoculum source. Aliquots (30 μl) of cells were inoculated into 3 ml of SD in 15 ml test tubes. […] The tubes were incubated at 25° C. for 16 h on an orbital shaker at 120 rpm, then transferred to an ice-box whilst maintaining agitation. The cells were then transferred to 1.5 ml eppendorf tubes, harvested by centrifugation (10 s), washed twice in sterile distilled water, and resuspended in 250 μl extraction buffer.
(§1) For whole cell fluorescent measurements, the washed cells were transferred directly to cuvettes containing 2.75 ml sterile distilled water.
For cell extract studies, 100μl of 400–600nm diameter glass beads were added to the tubes of cells which were then placed in a BIO 101 Fastprep FP120 to mechanically disrupt the cells. Following centrifugation for 30 s, the supernatant was transferred to a clean tube. The pellet of beads was washed in a further 250 μl of extraction buffer and this was added to the supernatant from the previous extraction. 200 μl of the pooled extract in 300 μl of water was then transferred to a cuvette.
Fluorescence measurements were performed with a Perkin Elmer LS50 Fluorescence Spectrometer. The excitation and emission wavelengths were set to 488nm and 511 nm, respectively, with a slit width of 10 nm. To correct for variations in cell number/protein extraction efficiency, light absorption was recorded for each cuvette at either 600 nm (for whole cells) or 280 nm (for extracts). The fluorescence values obtained from the fluorometer were then divided by the absorption readings to give the “brightness value”, an arbitrary unit independent of sample concentration. Other data handling details are dealt with either in the text or in the […]

RAD54 promoter [2] = experiment: Whole cell GFP fluorescence of FF18984 transformed with yEGFP-444 or pWDH444; conditions: for Brightness (BU) + MMS, average: average of three; for Brightness (BU) + MMS: single measurements
Description: A stationary phase culture of cells grown in SD medium was used as the inoculum source. Aliquots (30 μl) of cells were inoculated into 3 ml of SD in 15 ml test tubes. Half of the tubes were then supplemented with 0.01% MMS (the remaining tubes left as controls). The tubes were incubated at 25° C. for 16 h on an orbital shaker at 120 rpm, then transferred to an ice-box whilst maintaining agitation. The cells were then transferred to 1.5 ml eppendorf tubes, harvested by centrifugation (10 s), washed twice in sterile distilled water, and resuspended in 250 μl extraction buffer.
as §1
Fluorescence measurements were performed with a Perkin Elmer LS50 Fluorescence Spectrometer. The excitation and emission wavelengths were set to 488nm and 511 nm, respectively, with a slit width of 10 nm. To correct for variations in cell number/protein extraction efficiency, light absorption was recorded for each cuvette at either 600 nm (for whole cells) or 280 nm (for extracts). The fluorescence values obtained from the fluorometer were then divided by the absorption readings to give the “brightness value”, an arbitrary unit independent of sample concentration. Other data handling details are dealt with either in the text or in the
The assessment of GFP fluorescence in whole cells was performed essentially as described in 1.2 (above).

RAD54 promoter [3] = experiment: Western blot of yeast protein extracts with anti-GFP antibody; conditions: yeast cells transformed with pWDH443 or pWDH444, induced with MMS
Text: Protein extracts from untransformed yeast cells and yeast cells transformed with both pWDH443 and pWDH444 were used in a Western blot analysis using anti-GFP antibody. GFP was not detected in untransformed cells and was only detected at low levels in uninduced transformed cells.

RAD54 promoter [4] = experiment: Specificity experiment: GFP reporter induction by agents that delay mitosis; conditions: transformed cells; concentration that inhibited cell growth to a similar extent to the MMS treatment regime
Text: These experiments involved exposing transformed cells to hydroxyurea and nocodazole which can delay mitosis in different ways. Hydroxyurea interferes with DNA synthesis at two levels: it inhibits ribonucleotide reductase, so limiting the supply of precursors for DNA synthesis, and it inhibits DNA ligase, an enzyme responsible for repairing nicks (single strand breaks) in the DNA backbone. In contrast nocodazole inhibits microtubule formation and thus primarily arrests cell growth by preventing the normal segregation of chromosomes during mitosis.

[5] = FF18984 transformed with pWDH444, whole cells
[6] = FF18984 transformed with yEGFP-444, whole cells

Compound | Time after induction at which fluorescence began to increase (RAD54 promoter [1]; 0.05% MMS) | Change in fluorescence (FIG. 10) (RAD54 promoter [1]; haploid Y486 transfected with pWDH444, cell extracts, 0.02% MMS) | Change in fluorescence (FIG. 10) (RAD54 promoter [1]; haploid Y486 transfected with pWDH444, cell extracts, 0.05% MMS) | Change in brightness relative to untransformed cells also exposed to MMS (FIG. 7) (RAD54 promoter [1]; pWDH443 transformed yeast Y485, Y486 and diploid Y485/486) | Change in fluorescence (RAD54 promoter [1]; pWDH443 transformed yeast Y485, Y486 and diploid Y485/486, 0.002% MMS) | Change in fluorescence (RAD54 promoter [1]; pWDH443 transformed yeast Y485, Y486 and diploid Y485/486, 0.01% MMS) | Change in fluorescence (FIG. 10) (RAD54 promoter [1]; untransformed Y486 cells, 0.02% MMS) | Change in fluorescence (FIG. 10) (RAD54 promoter [1]; untransformed Y486 cells, 0.05% MMS) | Brightness (BU) + MMS, average (RAD54 promoter [2]; [5]) | Brightness (BU) + MMS (RAD54 promoter [2]; [5]) | Brightness (BU) + MMS, average (RAD54 promoter [2]; [6]) | Brightness (BU) + MMS (RAD54 promoter [2]; [6]) | GFP antibody binding in Western blot (RAD54 promoter [3]) | Induction of the GFP reporter gene (RAD54 promoter [4])
COS(C)(=O)=O [MMS, Methyl Methane Sulphonate] | one | increase in fluorescence | increase in fluorescence | increase in brightness | statistically significant increases in fluorescence | statistically significant increases in fluorescence | no significant effect | no significant effect | average = 49 BU | 45 BU and 54 BU and 48 BU | average = 96.7 BU | 100 BU and 97 BU and 93 BU | considerable increase in GFP antibody binding | 
NC(=O)NO [hydroxyurea] |  |  |  |  |  |  |  |  |  |  |  |  |  | no detectable induction of the GFP reporter gene
COC(=O)Nc1nc2ccc(C(=O)c3cccs3)cc2[nH]1 [nocodazole] |  |  |  |  |  |  |  |  |  |  |  |  |  | no detectable induction of the GFP reporter gene
